We go through eight molecules from ChEMBL document CHEMBL5038633 (J Med Chem, 2022).

The structures appear in SMILES notation. *1 amine or outer side, *2 acyl side, *3 side chain or, on linkers, in order; H or OH if unused. Where a SMILES comes first, the peptide text is derived from it. Bridges are numbered along the chain shown (N, C = ends). [ ]: non-standard residue; d: D form. Trp(5-Br) = N[C@@H](Cc1c[nH]c2ccc(Br)cc12)C(=O)O; Abu(4,4,4-F3) = N[C@@H](CC(F)(F)F)C(=O)O; Phe(3-Cl) = N[C@@H](Cc1cccc(Cl)c1)C(=O)O; X1 = O=C(O)/C=C/[C@H](N[*:1])C(=O)[*:2]; Chg = N[C@H](C(=O)O)C1CCCCC1

The target of experiment [1] is Sodium channel protein type 9 subunit alpha (Homo sapiens, UniProt Q15858). The experiment is described as follows: Inhibition of human Nav1.7 stably expressed in cells with train pulses to -20 mV at 0.1 Hz and holding potential of -95 mV by Qube-automated patch clamp assay. Type of experiment: cell-based.
The target in experiment [2] is Sodium channel protein type 4 subunit alpha (Homo sapiens, UniProt P35499). The experiment in a line: Inhibition of human Nav1.4 stably expressed in cells with train pulses to -20 mV at 0.1 Hz and holding potential of -95 mV by whole-cell Qube-automated patch clamp assay. The experiment is classed as cell-based.
Sequence of Sodium channel protein type 4 subunit alpha (P35499 whole entry): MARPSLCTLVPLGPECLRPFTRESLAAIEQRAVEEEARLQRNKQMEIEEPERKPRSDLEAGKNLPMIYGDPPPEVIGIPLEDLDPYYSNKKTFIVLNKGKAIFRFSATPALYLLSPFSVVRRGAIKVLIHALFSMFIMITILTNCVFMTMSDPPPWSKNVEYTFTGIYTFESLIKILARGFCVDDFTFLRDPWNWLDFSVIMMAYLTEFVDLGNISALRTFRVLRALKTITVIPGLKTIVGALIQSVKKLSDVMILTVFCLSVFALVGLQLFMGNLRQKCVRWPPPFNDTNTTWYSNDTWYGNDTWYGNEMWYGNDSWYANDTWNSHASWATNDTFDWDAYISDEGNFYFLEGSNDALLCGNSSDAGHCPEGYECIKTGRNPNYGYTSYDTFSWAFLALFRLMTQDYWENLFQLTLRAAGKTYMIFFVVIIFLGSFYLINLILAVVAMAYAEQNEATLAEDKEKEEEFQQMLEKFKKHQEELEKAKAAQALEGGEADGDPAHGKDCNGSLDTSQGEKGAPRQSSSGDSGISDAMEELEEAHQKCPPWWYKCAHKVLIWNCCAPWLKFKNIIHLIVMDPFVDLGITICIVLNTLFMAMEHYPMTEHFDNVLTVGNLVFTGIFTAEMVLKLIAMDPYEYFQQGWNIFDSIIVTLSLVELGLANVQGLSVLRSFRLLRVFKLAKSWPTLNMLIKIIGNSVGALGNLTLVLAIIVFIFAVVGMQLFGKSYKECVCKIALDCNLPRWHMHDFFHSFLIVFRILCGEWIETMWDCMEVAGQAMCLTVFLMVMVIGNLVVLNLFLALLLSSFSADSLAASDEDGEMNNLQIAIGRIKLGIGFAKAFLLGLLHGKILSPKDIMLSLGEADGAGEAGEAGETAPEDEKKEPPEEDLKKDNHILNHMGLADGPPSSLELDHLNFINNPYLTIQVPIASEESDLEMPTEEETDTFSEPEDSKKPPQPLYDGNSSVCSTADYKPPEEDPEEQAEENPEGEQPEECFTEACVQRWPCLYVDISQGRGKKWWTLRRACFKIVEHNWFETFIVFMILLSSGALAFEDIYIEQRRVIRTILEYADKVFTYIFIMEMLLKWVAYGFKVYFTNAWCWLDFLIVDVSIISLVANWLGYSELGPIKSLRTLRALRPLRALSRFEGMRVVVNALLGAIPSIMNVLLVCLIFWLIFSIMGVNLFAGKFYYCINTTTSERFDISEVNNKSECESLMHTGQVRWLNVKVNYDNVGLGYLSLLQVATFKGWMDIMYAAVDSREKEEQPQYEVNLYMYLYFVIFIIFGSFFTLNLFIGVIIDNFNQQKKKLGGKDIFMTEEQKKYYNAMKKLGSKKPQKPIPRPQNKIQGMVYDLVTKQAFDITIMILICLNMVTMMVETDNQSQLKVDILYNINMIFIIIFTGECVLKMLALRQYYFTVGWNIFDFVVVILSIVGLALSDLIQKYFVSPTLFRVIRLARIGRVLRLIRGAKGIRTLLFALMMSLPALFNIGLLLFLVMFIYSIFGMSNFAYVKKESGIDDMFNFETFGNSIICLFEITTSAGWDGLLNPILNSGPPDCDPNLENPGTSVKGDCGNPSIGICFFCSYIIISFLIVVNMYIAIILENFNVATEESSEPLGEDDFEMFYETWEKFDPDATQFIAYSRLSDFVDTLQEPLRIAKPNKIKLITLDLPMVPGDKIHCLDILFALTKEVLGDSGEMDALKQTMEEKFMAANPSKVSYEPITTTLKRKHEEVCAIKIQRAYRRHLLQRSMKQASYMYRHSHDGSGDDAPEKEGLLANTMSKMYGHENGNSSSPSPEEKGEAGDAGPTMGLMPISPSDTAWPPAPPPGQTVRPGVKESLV
For experiment [3], the target named is Sodium channel protein type 8 subunit alpha (Homo sapiens, UniProt Q9UQD0). The experiment is described as follows: Inhibition of human Nav1.6 stably expressed in cells with train pulses to -20 mV at 0.1 Hz and holding potential of -85 mV by whole-cell Qube-automated patch clamp assay. The experiment is classed as cell-based.
Sequence of Sodium channel protein type 8 subunit alpha (Q9UQD0 whole entry): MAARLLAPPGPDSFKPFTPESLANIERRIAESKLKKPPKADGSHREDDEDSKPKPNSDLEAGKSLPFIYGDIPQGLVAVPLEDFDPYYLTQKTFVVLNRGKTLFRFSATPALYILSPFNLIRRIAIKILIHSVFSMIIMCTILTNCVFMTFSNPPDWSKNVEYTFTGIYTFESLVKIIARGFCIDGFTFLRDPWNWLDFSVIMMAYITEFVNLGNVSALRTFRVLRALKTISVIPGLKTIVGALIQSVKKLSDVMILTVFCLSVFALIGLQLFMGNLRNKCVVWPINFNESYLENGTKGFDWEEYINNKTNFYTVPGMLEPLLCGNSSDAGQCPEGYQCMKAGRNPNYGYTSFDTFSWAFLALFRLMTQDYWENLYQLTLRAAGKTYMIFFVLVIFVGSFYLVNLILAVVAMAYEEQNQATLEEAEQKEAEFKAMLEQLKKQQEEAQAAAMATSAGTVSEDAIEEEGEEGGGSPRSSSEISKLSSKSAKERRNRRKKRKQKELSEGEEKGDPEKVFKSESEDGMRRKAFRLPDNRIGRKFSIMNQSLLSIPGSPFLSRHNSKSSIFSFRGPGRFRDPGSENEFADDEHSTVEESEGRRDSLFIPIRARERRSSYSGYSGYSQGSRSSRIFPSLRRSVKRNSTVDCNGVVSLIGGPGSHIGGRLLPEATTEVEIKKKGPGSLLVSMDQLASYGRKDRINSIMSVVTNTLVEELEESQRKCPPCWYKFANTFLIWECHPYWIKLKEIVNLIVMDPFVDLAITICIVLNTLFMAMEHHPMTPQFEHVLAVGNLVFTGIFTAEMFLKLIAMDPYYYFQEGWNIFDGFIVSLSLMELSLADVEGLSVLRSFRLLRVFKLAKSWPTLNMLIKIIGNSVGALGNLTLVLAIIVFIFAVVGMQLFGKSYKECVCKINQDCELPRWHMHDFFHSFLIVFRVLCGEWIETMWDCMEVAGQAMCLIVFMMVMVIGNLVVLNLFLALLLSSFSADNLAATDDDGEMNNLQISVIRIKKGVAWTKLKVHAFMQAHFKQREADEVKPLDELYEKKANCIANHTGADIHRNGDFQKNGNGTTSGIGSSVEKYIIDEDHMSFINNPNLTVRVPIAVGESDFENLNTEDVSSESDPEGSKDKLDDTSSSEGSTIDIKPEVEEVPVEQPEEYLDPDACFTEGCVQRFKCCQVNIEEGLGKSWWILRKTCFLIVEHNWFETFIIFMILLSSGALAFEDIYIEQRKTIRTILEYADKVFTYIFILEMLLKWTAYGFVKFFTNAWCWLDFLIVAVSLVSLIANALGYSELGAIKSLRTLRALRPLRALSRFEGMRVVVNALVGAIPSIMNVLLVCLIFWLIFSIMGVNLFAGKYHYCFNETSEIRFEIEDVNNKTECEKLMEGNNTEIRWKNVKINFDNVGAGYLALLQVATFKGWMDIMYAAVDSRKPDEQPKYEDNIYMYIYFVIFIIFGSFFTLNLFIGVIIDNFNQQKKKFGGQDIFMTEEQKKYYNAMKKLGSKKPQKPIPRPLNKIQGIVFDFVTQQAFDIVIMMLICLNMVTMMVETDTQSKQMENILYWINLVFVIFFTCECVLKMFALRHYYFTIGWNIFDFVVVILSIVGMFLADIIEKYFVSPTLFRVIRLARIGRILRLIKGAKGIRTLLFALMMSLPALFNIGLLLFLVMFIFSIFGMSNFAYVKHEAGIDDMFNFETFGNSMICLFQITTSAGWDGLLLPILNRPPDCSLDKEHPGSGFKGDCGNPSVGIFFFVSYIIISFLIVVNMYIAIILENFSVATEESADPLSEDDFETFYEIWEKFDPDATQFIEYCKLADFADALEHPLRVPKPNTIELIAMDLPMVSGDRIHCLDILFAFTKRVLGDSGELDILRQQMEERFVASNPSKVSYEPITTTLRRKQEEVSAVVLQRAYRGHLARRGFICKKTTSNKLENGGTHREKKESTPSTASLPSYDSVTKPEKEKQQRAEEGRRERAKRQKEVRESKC
Experiment [4] in a line: Inhibition of mast cell degranulation in Wistar Han rat peritoneal lavage mast cells assessed as inhibition histamine release by measuring lowest concentration at which histamine release observed measured after 30 mins. Particulars: 0.5 h. The experiment is classed as functional.

`CC(=O)N[C@H]1CSSC[C@@H]2NC(=O)[C@@H]3CSSC[C@@H](C(=O)N[C@@H](CCCCN)C(=O)N[C@@H](CCCCN)C(=O)N[C@@H](CCCCN)C(=O)N[C@@H](CC(C)C)C(=O)N[C@@H](Cc4c[nH]c5ccccc45)C(N)=O)NC(=O)[C@H](Cc4c[nH]c5ccccc45)NC(=O)[C@H](C4CCCCC4)NC(=O)[C@H](CCCCN)NC(=O)[C@H](CSSC[C@H](NC(=O)[C@@H]4CCCN4C(=O)[C@H](CCC(=O)O)NC(=O)[C@H](CC(F)(F)F)NC(=O)[C@H](Cc4cccc(Cl)c4)NC(=O)[C@H](CCCCN)NC(=O)[C@H](CCC(N)=O)NC1=O)C(=O)N[C@@H](CC(=O)O)C(=O)N[C@@H](CO)C(=O)N[C@@H](CCC(=O)O)C(=O)N[C@@H](CCCNC(=N)N)C(=O)N[C@@H](CCCCN)C(=O)N3)NC(=O)[C@H](CCC(=O)O)NC(=O)[C@H](CC(C)C)NC(=O)CNC(=O)[C@H](CCC(=O)O)NC2=O` (Ac-CQK[Phe(3-Cl)][Abu(4,4,4-F3)]EPCDSERKCCEGLECK[Chg]WCKKKLW-NH2; disulfide 1-15, 8-20, 14-24): the IC50 in experiment [1] was 64 nM; in experiment [2] it was more than 17 µM; in experiment [3], more than 17 µM. In experiment [4], the LED was 33 µM.
With `CC(=O)N[C@H]1CSSC[C@@H]2NC(=O)[C@@H]3CSSC[C@@H](C(=O)N[C@@H](CCCCN)C(=O)N[C@@H](CCCCN)C(=O)N[C@@H](CCCCN)C(=O)N[C@@H](CC(C)C)C(N)=O)NC(=O)[C@H](Cc4c[nH]c5ccccc45)NC(=O)[C@H](C4CCCCC4)NC(=O)[C@H](CCCCN)NC(=O)[C@H](CSSC[C@H](NC(=O)[C@@H]4CCCN4C(=O)[C@H](CCC(=O)O)NC(=O)[C@H](CC(F)(F)F)NC(=O)[C@H](Cc4ccccc4)NC(=O)[C@H](CCCCN)NC(=O)[C@H](CCC(N)=O)NC1=O)C(=O)N[C@@H](CC(=O)O)C(=O)N[C@@H](CO)C(=O)N[C@@H](CCC(=O)O)C(=O)N[C@@H](CCCNC(=N)N)C(=O)N[C@@H](CCCCN)C(=O)N3)NC(=O)[C@H](CCC(=O)O)NC(=O)[C@H](CC(C)C)NC(=O)CNC(=O)[C@H](CCC(=O)O)NC2=O` (Ac-CQKF[Abu(4,4,4-F3)]EPCDSERKCCEGLECK[Chg]WCKKKL-NH2; disulfide 1-15, 8-20, 14-24), the 50% inhibitory concentration (IC50) in experiment [1] is 240 nM; in experiment [2], more than 17 µM; in experiment [3], more than 17 µM. The LED in experiment [4] came to 100 µM.
For the molecule `CC(=O)N[C@H]1CSSC[C@@H]2NC(=O)[C@@H]3CSSC[C@@H](C(=O)N[C@@H](CCCCN)C(=O)N[C@@H](CCCCN)C(=O)N[C@@H](CCCCN)C(=O)N[C@@H](CC(C)C)C(=O)N[C@@H](Cc4c[nH]c5ccccc45)C(N)=O)NC(=O)[C@H](Cc4c[nH]c5ccccc45)NC(=O)[C@H](CC(C)C)NC(=O)[C@H](C(C)C)NC(=O)[C@H](CSSC[C@H](NC(=O)[C@@H]4CCCN4C(=O)[C@H](C)NC(=O)[C@H](CC(C)C)NC(=O)[C@H](Cc4ccccc4)NC(=O)[C@H](CCCCN)NC(=O)[C@H](CCC(N)=O)NC1=O)C(=O)N[C@@H](CC(=O)O)C(=O)N[C@@H](CO)C(=O)N[C@@H](CCC(=O)O)C(=O)N[C@@H](CCCNC(=N)N)C(=O)N[C@@H](CCCCN)C(=O)N3)NC(=O)[C@H](CCC(=O)O)NC(=O)[C@H](CC(C)C)NC(=O)CNC(=O)[C@H](CCC(=O)O)NC2=O` (Ac-CQKFLAPCDSERKCCEGLECVLWCKKKLW-NH2; disulfide 1-15, 8-20, 14-24), the IC50 was 232 nM in experiment [1], more than 17 µM in experiment [2] and more than 17 µM in experiment [3]. Also, the LED in experiment [4] was found to be 30 µM.
As to `CC(=O)N[C@H]1CSSC[C@@H]2NC(=O)[C@@H]3CSSC[C@@H](C(=O)N[C@@H](CCCCN)C(=O)N[C@@H](CCCCN)C(=O)N[C@@H](CCCCN)C(=O)N[C@@H](CC(C)C)C(=O)N[C@@H](Cc4c[nH]c5ccccc45)C(N)=O)NC(=O)[C@H](Cc4c[nH]c5ccccc45)NC(=O)[C@H](CC(C)C)NC(=O)[C@H](CCCNC(=N)N)NC(=O)[C@H](CSSC[C@H](NC(=O)[C@@H]4CCCN4C(=O)[C@H](CCC(=O)O)NC(=O)[C@H](CC(C)C)NC(=O)[C@H](Cc4ccccc4)NC(=O)[C@H](CCCCN)NC(=O)[C@H](CCC(N)=O)NC1=O)C(=O)N[C@@H](CC(=O)O)C(=O)N[C@@H](CO)C(=O)N[C@@H](CCC(=O)O)C(=O)N[C@@H](CCCNC(=N)N)C(=O)N[C@@H](CCCCN)C(=O)N3)NC(=O)[C@H](C(C)C)NC(=O)[C@H](CC(C)C)NC(=O)CNC(=O)[C@H](CCC(=O)O)NC2=O` (Ac-CQKFLEPCDSERKCCEGLVCRLWCKKKLW-NH2; disulfide 1-15, 8-20, 14-24), the results for the IC50 in experiment [1], in experiment [2] and in experiment [3] were 43 nM, 4.77 µM and 3.94 µM, respectively. Moreover, the LED in experiment [4] stood at 3.3 µM.
On the same counts, the results for `CC(=O)N[C@H]1CSSC[C@@H]2NC(=O)[C@@H]3CSSC[C@@H](C(=O)N[C@@H](CCCCN)C(=O)N[C@@H](CCCCN)C(=O)N[C@@H](CCCCN)C(=O)N[C@@H](CC(C)C)C(=O)N[C@@H](Cc4c[nH]c5ccccc45)C(N)=O)NC(=O)[C@H](Cc4c[nH]c5ccccc45)NC(=O)[C@H](CC(C)C)NC(=O)[C@H](C(C)C)NC(=O)[C@H](CSSC[C@H](NC(=O)[C@@H]4CCCN4C(=O)[C@H](C)NC(=O)[C@H](CC(C)C)NC(=O)[C@H](Cc4ccccc4)NC(=O)[C@H](CCCCN)NC(=O)[C@H](CCC(N)=O)NC1=O)C(=O)N[C@@H](CC(=O)O)C(=O)N[C@@H](CCCCN)C(=O)N[C@@H](/C=C/C(=O)O)C(=O)N[C@@H](CCCNC(=N)N)C(=O)N[C@@H](CCCCN)C(=O)N3)NC(=O)[C@H](CCC(=O)O)NC(=O)[C@H](CC(C)C)NC(=O)CNC(=O)[C@H](CCC(=O)O)NC2=O` (Ac-CQKFLAPCDK[X1]RKCCEGLECVLWCKKKLW-NH2; disulfide 1-15, 8-20, 14-24) are 99 nM, more than 17 µM, more than 17 µM and 33 µM.
On the same counts, the results for `CC(=O)N[C@H]1CSSC[C@@H]2NC(=O)[C@@H]3CSSC[C@@H](C(=O)N[C@@H](CCCCN)C(=O)N[C@@H](CCCCN)C(=O)N[C@@H](CCCCN)C(=O)N[C@@H](CC(C)C)C(=O)N[C@@H](Cc4c[nH]c5ccccc45)C(N)=O)NC(=O)[C@H](Cc4c[nH]c5ccccc45)NC(=O)[C@H](CC(C)C)NC(=O)[C@H](CCCNC(=N)N)NC(=O)[C@H](CSSC[C@H](NC(=O)[C@@H]4CCCN4C(=O)[C@H](C)NC(=O)[C@H](CC(C)C)NC(=O)[C@H](Cc4ccccc4)NC(=O)[C@H](CCCCN)NC(=O)[C@H](CCC(N)=O)NC1=O)C(=O)N[C@@H](CC(=O)O)C(=O)N[C@@H](CO)C(=O)N[C@@H](CCC(=O)O)C(=O)N[C@@H](CCCNC(=N)N)C(=O)N[C@@H](CCCCN)C(=O)N3)NC(=O)[C@H](CCC(=O)O)NC(=O)[C@H](CC(C)C)NC(=O)CNC(=O)[C@H](CCC(=O)O)NC2=O` (Ac-CQKFLAPCDSERKCCEGLECRLWCKKKLW-NH2; disulfide 1-15, 8-20, 14-24) are 42 nM, more than 17 µM, more than 17 µM and 3.3 µM.
Take `CC(=O)N[C@H]1CSSC[C@@H]2NC(=O)[C@@H]3CSSC[C@@H](C(=O)N[C@@H](CCCCN)C(=O)N[C@@H](CCCCN)C(=O)N[C@@H](CCCCN)C(=O)N[C@@H](CC(C)C)C(=O)N[C@@H](Cc4c[nH]c5ccccc45)C(N)=O)NC(=O)[C@H](Cc4c[nH]c5ccccc45)NC(=O)[C@H](C4CCCCC4)NC(=O)[C@H](CCCCN)NC(=O)[C@H](CSSC[C@H](NC(=O)[C@@H]4CCCN4C(=O)[C@H](CCC(=O)O)NC(=O)[C@H](CC(F)(F)F)NC(=O)[C@H](Cc4c[nH]c5ccc(Br)cc45)NC(=O)[C@H](CCCCN)NC(=O)[C@H](CCC(N)=O)NC1=O)C(=O)N[C@@H](CC(=O)O)C(=O)N[C@@H](CO)C(=O)N[C@@H](CCC(=O)O)C(=O)N[C@@H](CCCNC(=N)N)C(=O)N[C@@H](CCCCN)C(=O)N3)NC(=O)[C@H](CCC(=O)O)NC(=O)[C@H](CC(C)C)NC(=O)CNC(=O)[C@H](CCC(=O)O)NC2=O` (Ac-CQK[Trp(5-Br)][Abu(4,4,4-F3)]EPCDSERKCCEGLECK[Chg]WCKKKLW-NH2; disulfide 1-15, 8-20, 14-24): the values for the 50% inhibitory concentration (IC50) in experiment [1], in experiment [2] and in experiment [3] were 30 nM, more than 17 µM and 2.61 µM, respectively. In experiment [4], the LED amounted to 3.3 µM.
For `CC(=O)N[C@H]1CSSC[C@@H]2NC(=O)[C@@H]3CSSC[C@@H](C(=O)N[C@@H](CCCCN)C(=O)N[C@@H](CCCCN)C(=O)N[C@@H](CCCCN)C(=O)N[C@@H](CC(C)C)C(=O)N[C@@H](Cc4c[nH]c5ccccc45)C(N)=O)NC(=O)[C@H](Cc4c[nH]c5ccccc45)NC(=O)[C@H](CC(C)C)NC(=O)[C@H](CCCNC(=N)N)NC(=O)[C@H](CSSC[C@H](NC(=O)[C@@H]4CCCN4C(=O)[C@H](CCCCN)NC(=O)[C@H](CC(C)C)NC(=O)[C@H](Cc4ccccc4)NC(=O)[C@H](CCC(=O)O)NC(=O)[C@H](CCC(N)=O)NC1=O)C(=O)N[C@@H](CC(=O)O)C(=O)N[C@@H](CO)C(=O)N[C@@H](CCC(=O)O)C(=O)N[C@@H](CCCNC(=N)N)C(=O)N[C@@H](CCCCN)C(=O)N3)NC(=O)[C@H](CCC(=O)O)NC(=O)[C@H](CC(C)C)NC(=O)CNC(=O)[C@H](CCC(=O)O)NC2=O` (Ac-CQEFLKPCDSERKCCEGLECRLWCKKKLW-NH2; disulfide 1-15, 8-20, 14-24) the same measures were 91 nM, more than 17 µM, more than 17 µM and 3.3 µM.
